Reference: ChEMBL document CHEMBL5257035, “Nucleoside Derived Antibiotics to Fight Microbial Drug Resistance: New Utilities for an Established Class of Drugs?” (J Med Chem, 2016)
Converted amounts (≈) assume the structure as drawn.

Key:
Pseudomonas aeruginosa = experiment: Antibacterial activity against Pseudomonas aeruginosa assessed as bacterial growth reduction; assay type: functional
Candida albicans [1] = experiment: Inhibition of Candida albicans chitin synthase at 1 uM relative to control
[2] = biological target: T1, Phospho-N-acetylmuramoyl-pentapeptide-transferase (Escherichia coli K-12, UniProt P0A6W3); experiment: Inhibition of MraY in Escherichia coli K12
T1 sequence (P0A6W3 whole entry): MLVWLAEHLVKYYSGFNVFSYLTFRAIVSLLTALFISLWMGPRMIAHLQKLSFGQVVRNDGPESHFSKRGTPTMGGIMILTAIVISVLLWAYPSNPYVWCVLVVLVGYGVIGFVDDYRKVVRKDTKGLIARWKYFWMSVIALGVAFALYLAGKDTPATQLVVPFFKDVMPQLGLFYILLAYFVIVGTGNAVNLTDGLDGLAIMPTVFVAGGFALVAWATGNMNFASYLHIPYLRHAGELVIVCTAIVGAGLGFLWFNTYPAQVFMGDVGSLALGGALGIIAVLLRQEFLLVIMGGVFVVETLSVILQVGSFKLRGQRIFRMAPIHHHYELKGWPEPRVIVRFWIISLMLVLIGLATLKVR

Candida albicans [3] = experiment: Antifungal activity against Candida albicans SC5314 assessed as reduction in microbial growth inhibition incubated for 48 hrs by broth microdilution assay; assay type: functional
[4] = tested on: Cutaneotrichosporon cutaneum; experiment: Antifungal activity against Trichosporon cutaneum 3071 assessed as reduction in microbial growth inhibition for 48 hrs by broth microdilution assay; assay type: functional
Staphylococcus aureus = experiment: Antibacterial activity against methicillin-resistant Staphylococcus aureus SR3637 assessed as reduction in bacterial growth inhibition; assay type: functional
[5] = Cytotoxicity against human HepG2 cells assessed as reduction in cell viability incubated for 72 hrs by MTT assay; assay type: toxicity, cell-based
[6] = biological target: T2, Phospho-N-acetylmuramoyl-pentapeptide-transferase (Escherichia coli, UniProt E2QF15); experiment: Inhibition of MraY in Escherichia coli
T2 sequence (E2QF15 whole entry): T1 sequence (P0A6W3 whole entry)

[7] = Inhibition of Bacterial MraY; set-up: species or system Bacteria
[8] = tested on: Mycolicibacterium smegmatis; experiment: Antibacterial activity against Mycobacterium smegmatis SANK75075 assessed as bacterial growth inhibition; assay type: functional
Cryptococcus neoformans = experiment: Antifungal activity against Cryptococcus neoformans assessed as reduction in fungal growth; assay type: functional
Coccidioides immitis = experiment: Antifungal activity against Coccidioides immitis assessed as reduction in fungal growth; assay type: functional

C[C@@H]([C@H](NC(=O)[C@H](Cc1ccccc1)NC(=O)N[C@@H](Cc1c[nH]c2ccccc12)C(=O)O)C(=O)NC[C@H]1C[C@@H](O)[C@H](n2ccc(=O)[nH]c2=O)O1)N(C)C(=O)CN
MIC (Pseudomonas aeruginosa): 8 µg/mL (≈ 10.3 µM)

NC(=O)[C@H](O)[C@@H](O)C(=O)NC[C@H]1O[C@@H](n2ccc(=O)[nH]c2=O)[C@H](O)[C@@H]1O
inhibition (Candida albicans [1]): 12%

NC[C@H]1O[C@@H](OC[C@@H]2C[C@@H](O)[C@H](n3ccc(=O)[nH]c3=O)O2)[C@H](O)[C@@H]1O
IC50 [2]: 10 µM

NC(=O)OC[C@H](O)[C@@H](O)[C@H](N)C(=O)N[C@H](C(=O)NC(CCC(=O)O)C(=O)O)[C@H]1O[C@@H](n2cc(C=O)[nH]c2=O)[C@H](O)[C@@H]1O (stereo not given in full)
MIC (Candida albicans [3]): > 256 µg/mL
MIC [4]: 256 µg/mL

CCCCCCCCCCCCCC(=O)NC[C@@H]1C[C@H]2[C@@H](C(=O)N1CCCNC(=N)N)[C@H]([C@H]1O[C@@H](n3ccc(=O)[nH]c3=O)[C@H](O)[C@@H]1O)ON2CCCN
MIC (Staphylococcus aureus): 8 µg/mL (≈ 10.7 µM)

CCCCCCCCCCCCCC[C@@H](NC(=O)C(C)CCCNC(=N)N)C(=O)NC[C@@H]1C[C@H]2[C@@H](C(=O)N1)[C@H]([C@H]1O[C@@H](n3ccc(=O)[nH]c3=O)[C@H](O)[C@@H]1O)ON2CCCN (stereo not given in full)
MIC (Staphylococcus aureus): 8 µg/mL (≈ 9.42 µM)

CCCCOc1ccc(-c2ccc(CC[C@@H](NC(=O)[C@@H](NC(=O)N[C@H](C(=O)O)C(C)C)[C@@H]3CCNC(=N)N3)C(=O)NCCCNC(C(=O)O)[C@H](O[C@@H]3O[C@H](CN)[C@@H](O)[C@H]3O)[C@H]3O[C@@H](n4ccc(=O)[nH]c4=O)[C@H](O)[C@@H]3O)cc2)cc1 (stereo not given in full)
IC50 at 72 h [5]: > 100 µg/mL

CCCCCCCCCCCCCC(=O)NC[C@@H]1C[C@H]2[C@@H](C(=O)N1CCCNC(=N)N)[C@@H]([C@H]1O[C@@H](n3ccc(=O)[nH]c3=O)[C@H](O)[C@@H]1O)ON2CCCN
MIC (Staphylococcus aureus): 8 µg/mL (≈ 10.7 µM)

CC(C)[C@H](NC(=O)N[C@H](C(=O)N[C@H](C(=O)NCCCN[C@@H](CC[C@H]1O[C@@H](n2ccc(=O)[nH]c2=O)[C@H](O)[C@@H]1O)C(=O)O)[C@@H](O)C(C)C)[C@@H]1CCNC(=N)N1)C(=O)O
IC50 [6]: 1.7 µM
IC50 [7]: 150 µM

C[C@@H]([C@H](NC(=O)[C@H](Cc1ccccc1)NC(=O)N[C@@H](Cc1c[nH]c2ccccc12)C(=O)O)C(=O)NCC1C[C@@H](O)[C@H](n2ccc(=O)[nH]c2=O)O1)N(C)C(=O)[C@@H](N)Cc1ccc(F)cc1 (stereo not given in full)
MIC (Pseudomonas aeruginosa): 16 µg/mL (≈ 18.1 µM)

NC(=O)[C@@H](O)[C@H](O)C(=O)NC[C@H]1O[C@@H](n2ccc(=O)[nH]c2=O)[C@H](O)[C@@H]1O
inhibition (Candida albicans [1]): 20%

NC[C@H]1O[C@@H](OC[C@H]2O[C@@H](n3ccc(=O)[nH]c3=O)[C@H](O)[C@@H]2O)[C@H](O)[C@@H]1O
IC50 [6]: 25 µM
IC50 [7]: 50 µM
IC50 [2]: 10 µM

CO[C@H]1[C@@H](O)[C@H](n2ccc(=O)[nH]c2=O)O[C@@H]1[C@@H](O[C@@H]1OC(C(=O)NCCCSC)=C[C@@H](O)[C@H]1O)C(N)=O
MIC [8]: 12.5 µg/mL (≈ 22.9 µM)

CCCCCCCCCCCNC(=O)C1=C[C@@H](O)[C@@H](O)[C@H](O[C@@H](C(N)=O)[C@H]2O[C@@H](n3ccc(=O)[nH]c3=O)[C@H](O)[C@@H]2OC)O1
MIC [8]: 12.5 µg/mL (≈ 20.4 µM)

CSCC[C@H](N)C(=O)N[C@H](C(=O)O)[C@@H]1C[C@@H](O)[C@@H](O)[C@H](n2ccc(=O)[nH]c2=O)O1
MIC (Cryptococcus neoformans): 0.25 µg/mL (≈ 0.578 µM)
MIC (Coccidioides immitis): 0.25 µg/mL (≈ 0.578 µM)

O=C(NCCNC(=O)[C@@H](O)[C@H](O)C(=O)NC[C@H]1O[C@@H](n2ccc(=O)[nH]c2=O)[C@H](O)[C@@H]1O)[C@@H](O)[C@H](O)C(=O)NC[C@H]1O[C@@H](n2ccc(=O)[nH]c2=O)[C@H](O)[C@@H]1O
inhibition (Candida albicans [1]): 5%

CC(C)[C@H](NC(=O)N[C@H](C(=O)N[C@H](CCCCCCCc1ccc(-c2ccccc2)cc1)C(=O)NCCCNC(C(=O)O)[C@H](O[C@@H]1O[C@H](CN)[C@@H](O)[C@H]1O)[C@H]1O[C@@H](n2ccc(=O)[nH]c2=O)[C@H](O)[C@@H]1O)[C@@H]1CCNC(=N)N1)C(=O)O (stereo not given in full)
IC50 at 72 h [5]: > 100 µg/mL

CCCCCCCCCCCCCC[C@@H](NC(=O)C(C)CCCNC(=N)N)C(=O)NC[C@@H]1C[C@H]2[C@@H](C(=O)N1)[C@@H]([C@H]1O[C@@H](n3ccc(=O)[nH]c3=O)[C@H](O)[C@@H]1O)ON2CCCN (stereo not given in full)
MIC (Staphylococcus aureus): 8 µg/mL (≈ 9.42 µM)

CC(C)C[C@H](NC(=O)N[C@@H](Cc1ccc(O)cc1)C(=O)O)C(=O)N[C@H](C(=O)NCC1C[C@@H](O)[C@H](n2ccc(=O)[nH]c2=O)O1)[C@H](C)N(C)C(=O)[C@H](C)N (stereo not given in full)
MIC (Pseudomonas aeruginosa): 16 µg/mL (≈ 21.8 µM)

NC(=O)OC[C@H](O)[C@@H](O)[C@H](N)C(=O)N[C@H](C(=O)NC(CCC(=O)O)C(=O)O)[C@H]1O[C@@H](n2ccc(=O)[nH]c2=O)[C@H](O)[C@@H]1O (stereo not given in full)
MIC (Candida albicans [3]): > 256 µg/mL
MIC [4]: 256 µg/mL

C/C=C1\CN(C(=O)[C@@H](NC(=O)[C@@H](N)[C@H](O)[C@@H](O)COC(N)=O)[C@H]2O[C@@H](n3cc(CO)c(=O)[nH]c3=O)[C@H](O)[C@@H]2O)[C@H]1C(=O)O
MIC (Candida albicans [3]): > 256 µg/mL
MIC [4]: 256 µg/mL

CCCCOc1ccc(-c2ccc(CC[C@H](NC(=O)[C@@H](NC(=O)N[C@H](C(=O)O)C(C)C)[C@@H]3CCNC(=N)N3)C(=O)NCCCNC(C(=O)O)[C@H](O[C@@H]3O[C@H](CN)[C@@H](O)[C@H]3O)[C@H]3O[C@@H](n4ccc(=O)[nH]c4=O)[C@H](O)[C@@H]3O)cc2)cc1 (stereo not given in full)
IC50 at 72 h [5]: > 100 µg/mL

NC[C@H]1O[C@@H](OC[C@H]2O[C@@H](n3ccc(=O)[nH]c3=O)C[C@@H]2O)[C@H](O)[C@@H]1O
IC50 [2]: 10 µM

O=C(NCCCNC(=O)[C@@H](O)[C@H](O)C(=O)NC[C@H]1O[C@@H](n2ccc(=O)[nH]c2=O)[C@H](O)[C@@H]1O)[C@@H](O)[C@H](O)C(=O)NC[C@H]1O[C@@H](n2ccc(=O)[nH]c2=O)[C@H](O)[C@@H]1O
inhibition (Candida albicans [1]): 10%

N[C@@H](Cc1ccccc1)C(=O)N[C@H](C(=O)O)[C@@H]1C[C@@H](O)[C@@H](O)[C@H](n2ccc(=O)[nH]c2=O)O1
MIC (Cryptococcus neoformans): 0.25 µg/mL (≈ 0.557 µM)
MIC (Coccidioides immitis): 0.25 µg/mL (≈ 0.557 µM)

C[C@H](N)C(=O)N(C)[C@@H](C)[C@H](NC(=O)[C@H](Cc1ccccc1)NC(=O)N[C@@H](Cc1c[nH]c2ccccc12)C(=O)O)C(=O)NCC1C[C@@H](O)[C@H](n2ccc(=O)[nH]c2=O)O1 (stereo not given in full)
MIC (Pseudomonas aeruginosa): 16 µg/mL (≈ 20.3 µM)

C/C=C1\CN(C(=O)[C@@H](NC(=O)[C@@H](N)[C@H](O)[C@@H](O)COC(N)=O)[C@H]2O[C@@H](n3cc(C=O)[nH]c3=O)[C@H](O)[C@@H]2O)[C@H]1C(=O)O
MIC (Candida albicans [3]): > 256 µg/mL
MIC [4]: 0.5 µg/mL

C[C@@H]([C@H](NC(=O)[C@H](Cc1ccccc1)NC(=O)N[C@@H](Cc1c[nH]c2ccccc12)C(=O)O)C(=O)NCC1C[C@@H](O)[C@H](n2ccc(=O)[nH]c2=O)O1)N(C)C(=O)[C@@H](N)Cc1ccc(O)cc1 (stereo not given in full)
MIC (Pseudomonas aeruginosa): 16 µg/mL (≈ 18.1 µM)

CCCCCCCCCCCCCC[C@@H](NC(=O)C(C)CCCNC(=N)N)C(=O)NC[C@@H]1CC[C@H]2[C@@H](C(=O)N1)[C@H]([C@H]1O[C@@H](n3ccc(=O)[nH]c3=O)[C@H](O)[C@@H]1O)ON2CCCN (stereo not given in full)
MIC (Staphylococcus aureus): 8 µg/mL (≈ 9.27 µM)

O=C(NC[C@H]1O[C@@H](n2ccc(=O)[nH]c2=O)[C@H](O)[C@@H]1O)[C@@H](O)[C@H](O)C(=O)NC[C@H]1O[C@@H](n2ccc(=O)[nH]c2=O)[C@H](O)[C@@H]1O
inhibition (Candida albicans [1]): 35%

CCCCCCCCCCCCCCC[C@H](NC(=O)[C@@H](NC(=O)N[C@H](C(=O)O)C(C)C)[C@@H]1CCNC(=N)N1)C(=O)NCCCNC(C(=O)O)[C@H](O[C@@H]1O[C@H](CN)[C@@H](O)[C@H]1O)[C@H]1O[C@@H](n2ccc(=O)[nH]c2=O)[C@H](O)[C@@H]1O (stereo not given in full)
IC50 at 72 h [5]: > 100 µg/mL

CC(C)C[C@@H](NC(=O)[C@@H](NC(=O)N[C@H](C(=O)O)C(C)C)[C@@H]1CCNC(=N)N1)C(=O)NCCCNC(C(=O)O)[C@H](O[C@@H]1O[C@H](CN)[C@@H](O)[C@H]1O)[C@H]1O[C@@H](n2ccc(=O)[nH]c2=O)[C@H](O)[C@@H]1O (stereo not given in full)
IC50 at 72 h [5]: > 100 µg/mL

N[C@@H](Cc1ccc(O)cc1)C(=O)N[C@H](C(=O)O)[C@@H]1C[C@@H](O)[C@@H](O)[C@H](n2ccc(=O)[nH]c2=O)O1
MIC (Cryptococcus neoformans): 0.25 µg/mL (≈ 0.538 µM)
MIC (Coccidioides immitis): 0.25 µg/mL (≈ 0.538 µM)

CC(C)[C@H](NC(=O)N[C@H](C(=O)N[C@@H](CCCCCCCc1ccc(-c2ccccc2)cc1)C(=O)NCCCNC(C(=O)O)[C@H](O[C@@H]1O[C@H](CN)[C@@H](O)[C@H]1O)[C@H]1O[C@@H](n2ccc(=O)[nH]c2=O)[C@H](O)[C@@H]1O)[C@@H]1CCNC(=N)N1)C(=O)O (stereo not given in full)
IC50 at 72 h [5]: > 100 µg/mL

CC(C)C[C@H](NC(=O)N[C@@H](Cc1c[nH]c2ccccc12)C(=O)O)C(=O)N[C@H](C(=O)NC[C@H]1C[C@@H](O)[C@H](n2ccc(=O)[nH]c2=O)O1)[C@H](C)N(C)C(=O)CN
MIC (Pseudomonas aeruginosa): 4 µg/mL (≈ 5.39 µM)
